Data on 2 compounds can be found in paper PMC11442653, “Treating ICB-resistant cancer by inhibiting PD-L1 via DHHC3 degradation induced by cell penetrating peptide-induced chimera conjugates” (Cell Death & Disease, 2024).

In experiment [1] the test system is C33A cells. Briefly: Colony formation assay with cisplatin. It counts as cell-based, human. As to conditions: vs control; 4 h treatment, then 7 days. Here is the method: The procedure commenced by counting and seeding cancer cells into a 6-well plate, with each well containing approximately 1000 cells. Following complete cell adhesion, various treatments were applied to each well, including a control PBS solution, cisplatin alone, and a combination of cisplatin and PCC16. This was followed by a 4-h incubation period. Subsequently, the initial culture medium was discarded, and the cells were incubated for additional 7 days in a fresh complete medium, which was renewed every 2–3 days. The cultivation process was halted on the formation of visible colonies detectable under a microscope, with each colony comprising approximately 60–80 cells. Double washing with PBS was conducted, followed by a 20-min fixation of the cells using a tissue cell fixative. After fixation, the cells were washed twice with PBS and stained with 0.1% crystal violet for 20 min. After rinsing the excess stain with deionized water, the plates were air-dried at ambient temperature. The colonies were photographed for documentation, and the cell colony counts in each treatment group was recorded.

Experiment [2] concerns C33A cells. In words: Ki67 proliferation assay with cisplatin. The experiment is classed as cell-based, human. The settings on record: cisplatin vs control.
Experiment [3] has as its system C33A cells. Briefly: TUNEL apoptosis assay with cisplatin. The experiment is classed as cell-based, human. The settings on record: cisplatin vs control. Here is the method: Cells were seeded in 6-well plates at a density between 30% and 50%. Following complete adhesion, various treatments were applied: PBS alone, cisplatin, or a combination of cisplatin and PCC16 for 4 h each. After incubation, the medium was replaced and the cells were rinsed with PBS. The cells were fixed with 4% paraformaldehyde for half an hour and washed again with PBS. To permeabilize the cells, PBS mixed with 0.3% Triton X-100 was added and the cells were incubated at room temperature for 5 min. A specific quantity of the terminal deoxynucleotidyl transferase dUTP nick end labeling (TUNEL) assay reagent was prepared and mixed. After washing the cells on coverslips with PBS twice, 50 µL of the TUNEL reagent was applied to each cell sample. These samples were then incubated at 37 °C in a dark environment for 60 min. The samples were then washed three times with PBS and stained with DAPI for 3–5 min, followed by washing with PBS twice. The final step involved mounting the samples for observation under a fluorescence microscope using an excitation wavelength range of 450–500 nm and an emission wavelength range of 515–565 nm to detect green fluorescence.

Experiment [4] concerns 4T1 cells. Briefly: Activity against ICB-resistant 4T1 tumors in vitro (PD-L1 blockers). The experiment is classed as cell-based, mouse.
The subject of experiment [5] is 4T1 cells. In words: 4T1 xenograft model in BALB/c mice, antitumor effect. The experiment is classed as in vivo, mouse.
Protocol: Female BALB/c mice, aged 6–8 weeks and weighing approximately 20 g were procured from the Wuhan Experimental Animal Center, Hubei, China. In vivo studies assessing antitumor effects were performed according to the protocols of the Experimental Animal Welfare and Ethics Committee at Wuhan University. These studies complied with the National Research Council’s guidelines detailed in the “Guide for the Care and Use of Laboratory Animals.” Cells were harvested in an optimal growth phase with approximately 80% confluence, centrifuged to discard the supernatant, and 2 million 4T1 cells were resuspended in 125 µL of PBS. This cell suspension was subcutaneously injected into the dorsal flank of mice to initiate the tumor model. Tumor dimensions were regularly measured using calipers, and the volume was calculated using the following formula: (length × width²)/2. When the tumor volume was 80–100 mm³, the tumor-bearing mice were allocated for further in vivo investigation. […] The treatments were administered via tail vein injections on days 0, 2, 4, 6, 8, 10, and 12. Throughout the experiment, both the weight of the mice and tumor volume were recorded. On day 18, the mice were euthanized via cervical dislocation. The tumors were excised for measurement, photographic documentation, and weighing.

In the case of `N.N.[Cl][Pt][Cl]` [cisplatin], in the experiment on C33A cells [1], the “number of C33A colonies” value is on record as “decreased”. Moreover, the “cell proliferation (Ki67)” value in the experiment with C33A cells [2] is recorded as “cell proliferation decreased”. For the same compound, the apoptosis result in the experiment with C33A cells [3] is listed as “apoptosis increased”.
Regarding `Cc1c(COc2ccc(CN3CCCCC3C(=O)O)cc2Br)cccc1-c1ccccc1` (stereo not shown) [BMS-8], in the experiment on 4T1 cells [4], the “effect on ICB-resistant tumors in vitro” value was “no significant effect on ICB-resistant tumors”. Besides, the “effect on ICB-resistant tumors in vivo” value in the experiment with 4T1 cells [5] (4T1) is “no significant effect on ICB-resistant tumors”. The “average tumor weight, percent of control group” value in the experiment with 4T1 cells [5] (4T1 xenograft, BALB/c mice, tail vein days 0, 2, 4, 6, 8, 10, 12, n = 4) is given as 90.8%. Further, the “tumor weight and size” value with 4T1 cells [5] (4T1 xenograft, vs control, n = 4) is “slight decrease in weight and size”.
